In article PMC4483627 (Marine Drugs, 2015):
“And” between values parts separate entries of the source, which are not always exact repeats. Equal values may be shown once. Positions of bridges follow the written chain, without caps; N, C: chain ends. Residues, ends and D or L forms follow the SMILES beside them.

Legend:
Test in all cases: cell-based
rat nAChR α9α10 = biological target: T1, rat nAChR α9α10 (Rattus norvegicus, UniProt P43144+Q9JLB5)
T1 construct: expressed in transfected cells; host or cells: Xenopus oocytes injected with cRNA
T1 sequence (P43144 26-479 limits assumed): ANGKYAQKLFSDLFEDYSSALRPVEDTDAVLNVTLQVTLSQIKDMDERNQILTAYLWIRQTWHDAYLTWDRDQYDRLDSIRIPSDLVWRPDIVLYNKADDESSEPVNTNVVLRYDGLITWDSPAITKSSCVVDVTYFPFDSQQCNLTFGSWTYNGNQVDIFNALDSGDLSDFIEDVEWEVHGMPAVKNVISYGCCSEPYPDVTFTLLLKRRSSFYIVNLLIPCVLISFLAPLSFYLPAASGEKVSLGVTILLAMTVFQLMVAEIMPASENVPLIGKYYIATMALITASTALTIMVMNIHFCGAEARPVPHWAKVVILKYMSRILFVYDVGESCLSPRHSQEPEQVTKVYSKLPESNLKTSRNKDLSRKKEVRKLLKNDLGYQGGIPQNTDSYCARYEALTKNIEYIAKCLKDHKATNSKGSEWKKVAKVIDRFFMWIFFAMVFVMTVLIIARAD
T1 sequence (Q9JLB5 25-447 limits assumed): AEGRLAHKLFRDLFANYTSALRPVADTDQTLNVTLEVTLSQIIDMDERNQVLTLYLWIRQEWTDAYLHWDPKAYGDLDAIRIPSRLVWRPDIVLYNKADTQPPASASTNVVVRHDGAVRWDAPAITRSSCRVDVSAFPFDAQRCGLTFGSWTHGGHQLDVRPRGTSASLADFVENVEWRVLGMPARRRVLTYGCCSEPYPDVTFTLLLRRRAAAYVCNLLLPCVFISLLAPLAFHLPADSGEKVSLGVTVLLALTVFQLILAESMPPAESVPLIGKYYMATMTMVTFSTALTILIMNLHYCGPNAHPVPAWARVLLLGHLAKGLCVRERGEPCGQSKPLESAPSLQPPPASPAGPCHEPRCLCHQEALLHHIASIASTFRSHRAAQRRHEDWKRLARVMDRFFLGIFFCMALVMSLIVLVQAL

rat nAChR α3β4 = biological target: T2, rat nAChR α3β4 (Rattus norvegicus, UniProt P04757+P12392)
T2 construct: expressed in transfected cells; host or cells: Xenopus oocytes injected with cRNA
T2 sequence (P04757 26-499 limits assumed): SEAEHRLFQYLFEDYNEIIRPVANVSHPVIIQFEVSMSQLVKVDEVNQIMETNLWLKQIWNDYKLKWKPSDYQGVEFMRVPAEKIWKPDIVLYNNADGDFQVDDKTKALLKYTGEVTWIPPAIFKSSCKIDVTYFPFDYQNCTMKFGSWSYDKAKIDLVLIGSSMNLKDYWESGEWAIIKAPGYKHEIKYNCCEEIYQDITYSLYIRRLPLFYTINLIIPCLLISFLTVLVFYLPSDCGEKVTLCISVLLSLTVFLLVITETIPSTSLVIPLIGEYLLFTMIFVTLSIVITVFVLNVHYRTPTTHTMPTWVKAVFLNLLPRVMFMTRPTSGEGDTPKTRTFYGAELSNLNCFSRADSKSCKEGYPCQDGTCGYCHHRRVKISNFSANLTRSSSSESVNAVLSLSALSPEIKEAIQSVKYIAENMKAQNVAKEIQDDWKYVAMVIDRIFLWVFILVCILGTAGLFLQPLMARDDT
T2 sequence (P12392 21-495 limits assumed): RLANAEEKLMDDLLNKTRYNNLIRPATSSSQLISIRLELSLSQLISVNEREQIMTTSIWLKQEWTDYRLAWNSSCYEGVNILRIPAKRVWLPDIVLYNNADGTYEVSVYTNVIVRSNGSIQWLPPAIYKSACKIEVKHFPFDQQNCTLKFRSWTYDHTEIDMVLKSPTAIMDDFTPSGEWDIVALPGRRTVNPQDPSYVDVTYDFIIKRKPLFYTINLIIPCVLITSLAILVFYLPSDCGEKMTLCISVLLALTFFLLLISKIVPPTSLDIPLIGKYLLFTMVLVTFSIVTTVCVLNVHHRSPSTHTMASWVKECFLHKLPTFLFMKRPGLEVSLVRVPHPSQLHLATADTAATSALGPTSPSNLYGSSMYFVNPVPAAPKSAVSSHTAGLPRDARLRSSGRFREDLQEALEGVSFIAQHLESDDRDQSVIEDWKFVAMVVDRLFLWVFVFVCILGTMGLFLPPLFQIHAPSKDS

rat nAChR α7 = biological target: T3, rat nAChR α7 (Rattus norvegicus, UniProt Q05941)
T3 construct: expressed in transfected cells; host or cells: Xenopus oocytes injected with cRNA
T3 sequence (Q05941 23-502 limits assumed): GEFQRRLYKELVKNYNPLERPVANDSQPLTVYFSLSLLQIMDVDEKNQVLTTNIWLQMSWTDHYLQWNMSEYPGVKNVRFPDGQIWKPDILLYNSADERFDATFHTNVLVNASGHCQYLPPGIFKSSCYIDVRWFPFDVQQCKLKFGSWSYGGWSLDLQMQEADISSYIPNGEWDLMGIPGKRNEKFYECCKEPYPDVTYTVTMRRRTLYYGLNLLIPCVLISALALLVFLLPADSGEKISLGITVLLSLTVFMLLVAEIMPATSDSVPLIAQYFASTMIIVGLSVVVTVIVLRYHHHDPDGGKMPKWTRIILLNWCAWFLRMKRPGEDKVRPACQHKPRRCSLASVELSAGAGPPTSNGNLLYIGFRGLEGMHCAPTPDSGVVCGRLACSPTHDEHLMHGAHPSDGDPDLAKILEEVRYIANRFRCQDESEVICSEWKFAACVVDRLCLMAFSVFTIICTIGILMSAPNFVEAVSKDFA

rat nAChR α2β4 = biological target: T4, rat nAChR α2β4 (Rattus norvegicus, UniProt P12389+P12392); conditions: for IC50: IC50 α2β4
T4 construct: expressed in transfected cells; host or cells: Xenopus oocytes injected with cRNA
T4 sequence (P12389 28-511 limits assumed): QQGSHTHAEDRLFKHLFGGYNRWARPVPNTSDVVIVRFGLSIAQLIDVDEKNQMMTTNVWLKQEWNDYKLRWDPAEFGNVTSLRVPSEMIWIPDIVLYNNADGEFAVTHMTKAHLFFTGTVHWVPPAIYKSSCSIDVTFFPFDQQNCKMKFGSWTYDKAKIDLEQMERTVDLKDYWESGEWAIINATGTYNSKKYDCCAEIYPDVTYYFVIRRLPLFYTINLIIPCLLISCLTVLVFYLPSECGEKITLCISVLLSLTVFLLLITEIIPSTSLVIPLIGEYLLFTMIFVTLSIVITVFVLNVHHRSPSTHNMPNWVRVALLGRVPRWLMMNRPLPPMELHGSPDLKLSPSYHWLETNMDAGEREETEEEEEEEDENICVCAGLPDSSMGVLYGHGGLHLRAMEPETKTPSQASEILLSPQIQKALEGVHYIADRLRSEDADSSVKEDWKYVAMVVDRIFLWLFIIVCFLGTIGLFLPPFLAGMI
T4 sequence (P12392 21-495 limits assumed): as the sequence (P12392 21-495 limits assumed) above

rat nAChR α3β2 [1] = biological target: T5, rat nAChR α3β2 (Rattus norvegicus, UniProt P04757+P12390); type: cell-based
T5 construct: expressed in transfected cells; host or cells: Xenopus oocytes injected with cRNA
T5 sequence (P04757 26-499 limits assumed): as the sequence (P04757 26-499 limits assumed) above
T5 sequence (P12390 25-500 limits assumed): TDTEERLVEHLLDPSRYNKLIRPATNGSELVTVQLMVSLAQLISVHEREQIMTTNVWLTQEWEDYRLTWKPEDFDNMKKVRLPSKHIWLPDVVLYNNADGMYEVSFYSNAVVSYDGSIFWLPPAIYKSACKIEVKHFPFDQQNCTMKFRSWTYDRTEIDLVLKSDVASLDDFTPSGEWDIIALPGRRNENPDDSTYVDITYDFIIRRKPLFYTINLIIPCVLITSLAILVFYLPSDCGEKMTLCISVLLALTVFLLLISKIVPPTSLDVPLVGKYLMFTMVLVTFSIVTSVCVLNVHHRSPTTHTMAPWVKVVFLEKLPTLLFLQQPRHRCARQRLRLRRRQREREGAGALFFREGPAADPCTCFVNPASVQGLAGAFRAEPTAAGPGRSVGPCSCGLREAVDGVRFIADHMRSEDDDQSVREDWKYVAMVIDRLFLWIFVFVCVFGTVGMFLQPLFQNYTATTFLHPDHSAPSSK

rat nAChR α3β2 [2] = biological target: T5, rat nAChR α3β2; type: cell-based; remark: listed apart in the source

SMILES | IC50 (rat nAChR α9α10) [nM] | IC50 (rat nAChR α3β4) [nM] | IC50 (rat nAChR α7) [nM] | IC50 (rat nAChR α2β4) | kon (rat nAChR α3β2 [1]) [M⁻¹ s⁻¹] | koff (rat nAChR α3β2 [1]; SEM) [s⁻¹] | IC50 (rat nAChR α3β2 [2]) [nM] | further results
CC(C)C[C@@H]1NC(=O)[C@H](CCC(=O)O)NC(=O)[C@@H]2CCCN2C(=O)[C@H](Cc2c[nH]cn2)NC(=O)[C@H](CC(N)=O)NC(=O)[C@H](C(C)C)NC(=O)[C@H](Cc2c[nH]cn2)NC(=O)[C@@H]2CSSC[C@H](NC(=O)[C@H](C)NC(=O)[C@@H]3CCCN3)C(=O)N[C@@H](CSSC[C@@H](C(N)=O)NC1=O)C(=O)N[C@@H]([C@@H](C)O)C(=O)N[C@@H](Cc1c[nH]cn1)C(=O)N1CCC[C@H]1C(=O)N[C@@H](C)C(=O)N2 [Mr1.7[E2A,S12N]] (H-PACCTHPACHVNHPELC-NH2; disulfide 3-9, 4-17) | > 10000 | 556 | 591 | 3490 nM | 73800 | 0.00173 | – | –
CC(C)C[C@@H]1NC(=O)[C@H](CCC(=O)O)NC(=O)[C@@H]2CCCN2C(=O)[C@H](Cc2c[nH]cn2)NC(=O)[C@H](CO)NC(=O)[C@H](C(C)C)NC(=O)[C@H](Cc2c[nH]cn2)NC(=O)[C@@H]2CSSC[C@H](NC(=O)[C@H](C)NC(=O)[C@@H]3CCCN3)C(=O)N[C@@H](CSSC[C@@H](C(N)=O)NC1=O)C(=O)N[C@@H]([C@@H](C)O)C(=O)N[C@@H](Cc1c[nH]cn1)C(=O)N1CCC[C@H]1C(=O)N[C@@H](C)C(=O)N2 [Mr1.7[E2A]] (H-PACCTHPACHVSHPELC-NH2; disulfide 3-9, 4-17) | > 10000 | > 10000 | > 10000 | > 10000 nM | 86300 | 0.0028 | – | selectivity index (SI) for α3β2 (rat nAChR α3β2 [2]): > 847
CC(C)C[C@@H]1NC(=O)[C@H](CCC(=O)O)NC(=O)[C@@H]2CCCN2C(=O)[C@H](Cc2c[nH]cn2)NC(=O)[C@H](CC(N)=O)NC(=O)CNC(=O)[C@H](Cc2c[nH]cn2)NC(=O)[C@@H]2CSSC[C@H](NC(=O)CN)C(=O)N[C@@H](CSSC[C@@H](C(N)=O)NC1=O)C(=O)N[C@@H]([C@@H](C)O)C(=O)N[C@@H](Cc1c[nH]cn1)C(=O)N1CCC[C@H]1C(=O)N[C@@H](C)C(=O)N2 [Mr1.7[E2G,V11G,S12N,Δ1]] (H-GCCTHPACHGNHPELC-NH2; disulfide 2-8, 3-16; N-terminus assumed) | > 10000 | 125 | > 10000 | 390 nM | 208000 | 0.00352 | – | α9α10/α3β2 (rat nAChR α9α10): >2272; α3β4/α3β2 (rat nAChR α3β4): 27; α7/α3β2 (rat nAChR α7): >2272; α2β4/α3β2 (rat nAChR α2β4): 89; 50% recovery from block (rat nAChR α3β2 [1]): 3.3 min; t1/2 (rat nAChR α3β2 [1]): 3.286 (2.842–3.894) min; kobs (rat nAChR α3β2 [1]; SEM): 1.460 ± 0.2516 min⁻¹
CC(C)C[C@@H]1NC(=O)[C@H](CCC(=O)O)NC(=O)[C@@H]2CCCN2C(=O)[C@H](Cc2c[nH]cn2)NC(=O)[C@H](CO)NC(=O)[C@H](C(C)C)NC(=O)[C@H](C)NC(=O)[C@@H]2CSSC[C@H](NC(=O)[C@H](CCC(=O)O)NC(=O)[C@@H]3CCCN3)C(=O)N[C@@H](CSSC[C@@H](C(N)=O)NC1=O)C(=O)N[C@@H]([C@@H](C)O)C(=O)N[C@@H](Cc1c[nH]cn1)C(=O)N1CCC[C@H]1C(=O)N[C@@H](C)C(=O)N2 [Mr1.7[H10A]] (H-PECCTHPACAVSHPELC-NH2; disulfide 3-9, 4-17) | – | – | – | – | – | – | 123 | –
CC(C)C[C@@H]1NC(=O)[C@H](CCC(=O)O)NC(=O)[C@@H]2CCCN2C(=O)[C@H](C)NC(=O)[C@H](CO)NC(=O)[C@H](C(C)C)NC(=O)[C@H](Cc2c[nH]cn2)NC(=O)[C@@H]2CSSC[C@H](NC(=O)[C@H](CCC(=O)O)NC(=O)[C@@H]3CCCN3)C(=O)N[C@@H](CSSC[C@@H](C(N)=O)NC1=O)C(=O)N[C@@H]([C@@H](C)O)C(=O)N[C@@H](Cc1c[nH]cn1)C(=O)N1CCC[C@H]1C(=O)N[C@@H](C)C(=O)N2 [Mr1.7[H13A]] (H-PECCTHPACHVSAPELC-NH2; disulfide 3-9, 4-17; N-terminus assumed) | – | – | – | – | – | – | > 10000 | –
CC(C)C[C@@H]1NC(=O)[C@H](CCC(=O)O)NC(=O)[C@@H]2CCCN2C(=O)[C@H](Cc2c[nH]cn2)NC(=O)[C@H](CO)NC(=O)[C@H](C(C)C)NC(=O)[C@H](Cc2c[nH]cn2)NC(=O)[C@@H]2CSSC[C@H](NC(=O)[C@H](CCC(=O)O)NC(=O)[C@H](C)N)C(=O)N[C@@H](CSSC[C@@H](C(N)=O)NC1=O)C(=O)N[C@@H]([C@@H](C)O)C(=O)N[C@@H](Cc1c[nH]cn1)C(=O)N1CCC[C@H]1C(=O)N[C@@H](C)C(=O)N2 [Mr1.7[P1A]] (H-AECCTHPACHVSHPELC-NH2; disulfide 3-9, 4-17) | – | – | – | – | – | – | 42 | –
CC(C)C[C@@H]1NC(=O)[C@H](CCC(=O)O)NC(=O)[C@@H]2CCCN2C(=O)[C@H](Cc2c[nH]cn2)NC(=O)[C@H](CC(N)=O)NC(=O)[C@H](C(C)C)NC(=O)[C@H](Cc2c[nH]cn2)NC(=O)[C@@H]2CSSC[C@H](NC(=O)[C@H](CCC(=O)O)NC(=O)[C@@H]3CCCN3)C(=O)N[C@@H](CSSC[C@@H](C(N)=O)NC1=O)C(=O)N[C@@H]([C@@H](C)O)C(=O)N[C@@H](Cc1c[nH]cn1)C(=O)N1CCC[C@H]1C(=O)N[C@@H](C)C(=O)N2 [Mr1.7[S12N]] (H-PECCTHPACHVNHPELC-NH2; disulfide 3-9, 4-17) | > 10000 | 850 | 220 | 370 nM and 367 nM | 130000 | 0.00407 | – | –
CC(C)C[C@@H]1NC(=O)[C@H](CCC(=O)O)NC(=O)[C@@H]2CCCN2C(=O)[C@H](Cc2c[nH]cn2)NC(=O)[C@H](CC(N)=O)NC(=O)CNC(=O)[C@H](Cc2c[nH]cn2)NC(=O)[C@@H]2CSSC[C@H](NC(=O)[C@H](CCC(=O)O)NC(=O)[C@@H]3CCCN3)C(=O)N[C@@H](CSSC[C@@H](C(N)=O)NC1=O)C(=O)N[C@@H]([C@@H](C)O)C(=O)N[C@@H](Cc1c[nH]cn1)C(=O)N1CCC[C@H]1C(=O)N[C@@H](C)C(=O)N2 [Mr1.7[V11G,S12N]] (H-PECCTHPACHGNHPELC-NH2; disulfide 3-9, 4-17) | – | – | – | – | – | – | 28.4 | –
CC(C)C[C@@H]1NC(=O)[C@H](CCC(=O)O)NC(=O)[C@@H]2CCCN2C(=O)[C@H](Cc2c[nH]cn2)NC(=O)[C@H](CO)NC(=O)CNC(=O)[C@H](Cc2c[nH]cn2)NC(=O)[C@@H]2CSSC[C@H](NC(=O)[C@H](CCC(=O)O)NC(=O)[C@@H]3CCCN3)C(=O)N[C@@H](CSSC[C@@H](C(N)=O)NC1=O)C(=O)N[C@@H]([C@@H](C)O)C(=O)N[C@@H](Cc1c[nH]cn1)C(=O)N1CCC[C@H]1C(=O)N[C@@H](C)C(=O)N2 [Mr1.7[V11G]] (H-PECCTHPACHGSHPELC-NH2; disulfide 3-9, 4-17) | – | – | – | – | – | – | 138 | –
CC(C)C[C@@H]1NC(=O)[C@H](CCC(=O)O)NC(=O)[C@@H]2CCCN2C(=O)[C@H](Cc2c[nH]cn2)NC(=O)[C@H](CO)NC(=O)[C@H](C(C)C)NC(=O)[C@H](Cc2c[nH]cn2)NC(=O)[C@@H]2CSSC[C@H](NC(=O)[C@H](CCC(=O)O)NC(=O)[C@@H]3CCCN3C(=O)[C@@H](N)CCCNC(=N)N)C(=O)N[C@@H](CSSC[C@@H](C(N)=O)NC1=O)C(=O)N[C@@H]([C@@H](C)O)C(=O)N[C@@H](Cc1c[nH]cn1)C(=O)N1CCC[C@H]1C(=O)N[C@@H](C)C(=O)N2 [RaaMr1.7] (H-RPECCTHPACHVSHPELC-NH2; disulfide 4-10, 5-18; N-terminus assumed) | – | – | – | – | – | – | 41.2 | –
